# Results as given in the pKa sets of Baltruschat and Czodrowski (2020).
row,Structure (SMILES),pKa
1,CC(C)(C)NC[C@H](O)COc1nsnc1N1CCOCC1,9.53
2,CC(C)(C)c1ccc(C(O)CCCN2CCC(C(O)(c3ccccc3)c3ccccc3)CC2)cc1 (centres undefined),9.86
3,NC(Cc1c[nH]c2ccccc12)C(=O)NC(Cc1c[nH]c2ccccc12)C(=O)O (centres undefined),3.38
4,Cc1cc(=O)oc2cc(C3OC(C(=O)O)C(O)C(O)C3O)ccc12 (centres undefined),2.82
5,COc1ccc([C@@H]2Sc3ccccc3N(CCN(C)C)C(=O)[C@@H]2OC(C)=O)cc1,8.02
6,NC(CC(=O)O)C(=O)O (centres undefined),9.67
7,CC1(C)S[C@@H]2[C@@H](NC(=O)[C@H](N)c3ccc(O)cc3)C(=O)N2[C@H]1C(=O)O,2.6
8,N#Cc1ccc2c(c1)N(CCCCN1CCC(O)CC1)c1ccccc1S2,8.76
9,CN[C@H]1C(O)O[C@H](CO)[C@@H](O)[C@@H]1O (some centres undefined),9.6
10,C=CCOc1ccccc1OCC(O)CNC(C)C (centres undefined),9.57
11,CCC1OC(=O)CC(O)C(C)C(CC=O)(OC2OC(C)CC(N(C)C)C2O)CC(C)C(=O)C=CC(C)=CC1C (centres undefined),8.83
12,CCC(=O)OC(Cc1ccccc1)(c1ccccc1)C(C)CN(C)C (centres undefined),9.06
13,CC(Cc1ccc(C(C)(C)C)cc1)CN1CC(C)OC(C)C1 (centres undefined),7.34
14,CC[C@H]1OC(=O)[C@@H](C)[C@H](O[C@@H]2C[C@](C)(OC)[C@@H](O)[C@@H](C)O2)[C@@H](C)[C@@H](O[C@@H]2O[C@H](C)C[C@@H](N(C)C)[C@@H]2O)[C@](C)(O)C[C@@H](C)/C(=N/OCOCCOC)[C@@H](C)[C@@H](O)[C@]1(C)O,9.27
15,CCOC(=O)[C@H](CCc1ccccc1)N[C@@H](C)C(=O)N1CCC[C@H]1C(=O)O,2.92
16,CC(C(=O)O)c1ccc(-c2ccccc2)c(F)c1 (centres undefined),4.03
17,CC(C)NCC(O)COc1ccc(COCCOC(C)C)cc1 (centres undefined),9.57
18,CO[C@H]1[C@@H](O[C@@H]2O[C@H](C)[C@@H](O[C@H]3C[C@@](C)(O)[C@@H](O[C@@H](O)CC(C)C)[C@H](C)O3)[C@@H](N(C)C)[C@H]2O)[C@@H](CCO)C[C@@H](C)[C@H](O)CC[C@@H]2O[C@H]2C[C@@H](C)O[C@@H](O)C[C@H]1O[C@H](C)O,7.61
19,CC(C)(C)NCC(O)COc1ccccc1C1CCCC1 (centres undefined),9.92
20,CN(C)CCC=C1c2ccccc2CCc2ccccc21,9.49
21,CCN(C)C(=O)Oc1cccc(C(C)N(C)C)c1 (centres undefined),8.8
22,COC1C(OC(C)=O)CC(=O)OC(C)CC2OC2/C=C/C(=O)C(C)CC(CC=O)C1OC1OC(C)C(O)C(N(C)C)C1O (centres undefined),8.44

row,Structure (SMILES),pKa
1,CCCCC[C@H](O)/C=C/[C@H]1[C@H](C/C=C/CCCC(=O)O)C(=O)C[C@@H]1O,4.77
2,COc1ccccc1OCCNCC(O)COc1cccc2[nH]c3ccccc3c12 (centres undefined),7.97
3,CN(C)CCCOc1nn(Cc2ccccc2)c2ccccc12,9.27
4,CC(C)NCC(O)COc1cccc2[nH]c3ccccc3c12 (centres undefined),9.52
5,CCN(CC)C(=O)Nc1ccc(OCC(O)CNC)c(C(C)=O)c1 (centres undefined),9.66
6,CCCCC[C@H](O)/C=C/[C@H]1[C@H](CCCCCCC(=O)O)C(=O)C[C@@H]1O,4.87
7,CCC1OC(=O)CC(O)C(C)C(OC2OC(C)C(O)C(N(C)C)C2O)C(CC=O)CC(C)C(=O)C=CC(C)=CC1COC1OC(C)C(O)C(OC)C1CC (centres undefined),8.36
8,CCCN(CCC)S(=O)(=O)c1ccc(C(=O)O)cc1,3.01
9,NC(Cc1c[nH]c2ccccc12)C(=O)NC(Cc1ccccc1)C(=O)O (centres undefined),3.18
10,CN/C(=C\[N+](=O)[O-])NCCSCc1ccc(CN(C)C)o1,8.31
11,COc1ccc2c3c1O[C@H]1[C@@H](O)C=C[C@H]4[C@@H](C2)NCC[C@@]341,9.23
12,CC(NC(CCc1ccccc1)C(=O)O)C(=O)N1CCCC1C(=O)O (centres undefined),7.84
13,CN(C)CCOC1(c2ccccc2)CC2CCC1(C)C2(C)C (centres undefined),9.61
14,CCC1OC(=O)CC(O)C(C)C(OC2OC(C)C(OC3CC(C)(O)C(O)C(C)O3)C(N(C)C)C2O)C(CC=O)CC(C)C(=O)C=CC(C)=CC1COC1OC(C)C(O)C(OC)C1CC (centres undefined),7.73
15,CCN(CC)CCOC(=O)c1ccc(N)cc1,9.04
16,O=C1CC2(CCCC2)CC(=O)N1CCCCN1CCN(c2ncccn2)CC1,7.6
17,CC(C)(C)NCC(O)COc1cccc2c1C[C@H](O)[C@H](O)C2 (some centres undefined),9.69
18,CC(C)n1c(/C=C/[C@H](O)C[C@H](O)CC(=O)O)c(-c2ccc(F)cc2)c2ccccc21,4.31
19,CC(=O)Oc1c(C)cc(OCC(O)CNC(C)C)c(C)c1C (centres undefined),9.54
20,COC1CC(OC2C(C)C(O)OC(C)C(C)C(O)C(C)C(=O)C3(CO3)CC(C)C(OC3OC(C)CC(N(C)C)C3O)C2C)OC(C)C1O (centres undefined),8.84
21,CC[C@H]1OC(=O)[C@@H](C)[C@H](O[C@H]2C[C@](C)(OC)[C@H](O)[C@@H](C)O2)[C@@H](C)[C@@H](O[C@@H]2O[C@H](C)C[C@@H](N(C)C)[C@@H]2O)[C@](C)(O)C[C@@H](C)C(=O)[C@@H](C)[C@@H](O)[C@]1(C)O,8.8
22,CCC1OC(=O)CC(O)CC(OC2OC(C)CC(N(C)C)C2O)C(CC=O)CC(C)C(=O)C=CC2OC2C1C (centres undefined),8.79
